In US11202773B2, “Locally bioavailable drugs” (UNIVERSITY OF HOUSTON SYSTEM, priority 2015, dated 2021):

Experiments:
Raw264.7 cells = assay: Metabolism of the phenolics by Raw264.7 cells; format: in vitro ADME, mouse; conditions: 1 μM compound, 14 hours
Protocol: FIG. 4A is a bar graph illustration of the metabolism of the phenolics by Raw264.7 cells. Raw264.7 cells were incubated with 0.1 μg/mL LPS and 1 μM 6a1, 6a2 or 6a3, respectively. 14 hours later the concentrations of PGD2, the phenolics (i.e., aglycones, solid bars), and their phase II metabolites (open bars for glucuronides and shade bars for sulfates) were determined in the medium. Less PGD2 production means inhibition of COX-2 enzyme.
Glucuronidation of 6a1 in Raw264.7 cells was not influenced by LPS (FIG. 4B). […] The results of these experiments initially indicate that when characterizing inhibitory effects of the phenolics on COX-2, the importance of metabolic stability should be brought into consideration. This could be why phenolics were not considered to be active against COX-2 in many published reports using cellular COX-2 assays.

[1] = Solubility in HBSS with or without β-cyclodextrin; format: physicochemical
human Colon S9 = assay: Sulfation by human colon S9; format: in vitro ADME; conditions: substrate 10 μM
Protocol: (§1) FIG. 5D is a bar graph illustrating in vitro metabolism of phenolics. Glucuronidation rates of 6a1-6a4 by human liver and intestinal microsomes. Additional metabolic rates of various locally bioavailable COX-2 inhibitors are in Table 4. […]. The incubation systems were: for glucuronidation, 0.88 mM magnesium chloride (MgCl2), 4.4 mM saccharolactone, 0.022 mg/mL alamethicin, 3.5 mM uridine 5′-diphospho-glucuronic acid (UDPGA), 10 μM substrates and different concentrations of microsomes in 50 mM potassium phosphate buffer (pH 7.4); for sulfation, 10 mM dithiothreitol (DTT), 5 mM MgCl2, 100 μM 3′-phosphoadenosine-5′-phosphosulfate (PAPS),10 μM substrate and different concentrations of S9 fractions in 50 mM potassium phosphate buffer (pH 7.4).
(§2) In vitro tools were employed to help predict the in vivo metabolism rates of the COX-2 inhibitors that are phenolics. The microsomes and S9 fractions prepared from colon or liver were used to determine the in vivo glucuronidation and sulfation rates of the phenolic compounds, respectively. By employing microsomes and S9 fractions prepared from both rats and humans, it could be determined if the results obtained in the rat model could be reasonably extrapolated to humans. In these experiments, raloxifene and genistein, two phenolic compounds which undergo extensive first-pass metabolism, were selected as controls.

[2] = rat, in vivo
Protocol: For this purpose, blood samples were collected from each rat every hour during the perfusion period, and the bile samples were also collected by cannulating the bile duct.
By comparing the 6a1 concentrations in the input and output perfusate containing β-CD-formulated 6a1, the amounts of 6a1 absorbed from the colon were calculated for each hour during the perfusion period (FIG. 10B).

rat liver microsomes = assay: Glucuronidation by rat liver microsomes; format: in vitro ADME
Protocol: as §1, with “FIG. 5A” for “FIG. 5D”, “of phenolics via glucuronidation pathway.” for “of phenolics.”, “of all the new locally bioavailable COX-2 inhibitors” for “of 6a1-6a4”, “by rat” for “by human”, “liver” for “liver and intestinal”, “Table 3.” for “Table 4.”
as §2

human COX-2 = molecular target: T1, human COX-2 (Homo sapiens, UniProt P35354); assay: COX-2 activity (PGE2 production) in HCA-7 cells after A23187; format: cell-based; parameters: HCA-7 is a human colon cancer cell line in which COX-2 protein is constitutively expressed; endogenous in cells; host or cells: HCA-7; conditions: 30 min pre-incubation, 10 μM A23187, another 30 minutes
T1 sequence (P35354 18-604): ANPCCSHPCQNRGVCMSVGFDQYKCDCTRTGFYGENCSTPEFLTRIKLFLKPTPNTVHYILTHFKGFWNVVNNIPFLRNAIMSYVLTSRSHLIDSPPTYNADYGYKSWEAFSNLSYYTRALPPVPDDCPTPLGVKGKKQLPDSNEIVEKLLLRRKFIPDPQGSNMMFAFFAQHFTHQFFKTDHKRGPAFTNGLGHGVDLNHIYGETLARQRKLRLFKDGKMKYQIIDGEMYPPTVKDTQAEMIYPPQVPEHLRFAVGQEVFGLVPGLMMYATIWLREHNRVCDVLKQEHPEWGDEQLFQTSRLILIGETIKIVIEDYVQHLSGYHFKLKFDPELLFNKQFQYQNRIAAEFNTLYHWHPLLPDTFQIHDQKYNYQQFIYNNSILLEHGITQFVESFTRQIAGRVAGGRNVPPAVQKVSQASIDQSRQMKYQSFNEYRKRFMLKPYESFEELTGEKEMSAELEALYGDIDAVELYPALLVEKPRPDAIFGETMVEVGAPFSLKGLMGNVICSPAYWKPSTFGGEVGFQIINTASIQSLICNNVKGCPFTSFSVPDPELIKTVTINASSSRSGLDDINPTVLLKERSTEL
Protocol: First, the inhibitory effects of the new synthesized compounds on COX-2 were assayed in two cell lines: Raw264.7 cells and HCA-7 cells. Raw264.7 is a mouse macrophage cell line which expresses a high level of COX-2 protein upon lipopolysaccharide (LPS) induction. […] The concentration of prostaglandins (both PGD2 and PGE2) accumulated in the cell culture medium can be employed as an indicator of COX-2 activity. HCA-7 is a human colon cancer cell line in which COX-2 protein is constitutively expressed. Briefly, the cells were pre-incubated with different concentrations of the new compounds for 30 min, and then 10 μM A23187 (a calcium ionophore) was added to release membrane-bound arachidonic acid (the natural substrate of COX-2) to the cytosolic domain. The system was incubated for another 30 minutes and PGE2 concentrations in the culture medium were determined. In both cell lines, higher PGD2/PGE2 concentrations in the media meant more COX-2 activity.

[3] = rat, in vivo, po, 20 mg/kg
Protocol: The drugs were dispersed in ORA-PLUS® suspension vehicle (from Paddock Laboratories, Minneapolis, Minn.) and administrated to SD rats by oral gavage. The blood samples were collected from the tail tips at different time points.
Therefore, 20 mg/kg 6a1 was administered in suspension vehicle to the proximal colon of SD rats via a catheter reaching approximately 8 cm deep into the anus.

Cc1ccc(-c2cc(COc3ccccc3O)nn2-c2ccc(S(N)(=O)=O)cc2)cc1 [Compound 6a1]
Form recovered in medium at the end of incubation (Raw264.7 cells): recovered exclusively as their glucuronides | Osmotic pressure of the solution ([1]; 6a1 in HBSS with 4 mM β-CD): 290 mOsm/kg | Solubility in HBSS ([1]; in the presence of 4 mM β-CD, after sonication and centrifuge): 70 µM | Sulfation rates by human Colon S9 (Mean) (human Colon S9): 110 pmol/mg/min | 6a1-glucuronide concentration in bile [2]: more than 200 μM | Absorbed amount recovered from bile as glucuronides [2]: approximately 75% | Fraction absorbed in the colon that escaped first-pass metabolism in the liver [2]: less than 1% | Fraction of total perfused amount absorbed in the colon [2]: Approximately 13% | Glucuronidation by rat liver microsomes (FIG. 5A) (rat liver microsomes): rapidly glucuronidated | Glucuronidation rates by liver microsomes (Mean) (rat liver microsomes): 6299 pmol/mg/min | IC50 (human COX-2): 0.195 ± 0.03 µM

Cc1ccc(-c2cc(COc3cccc(O)c3)nn2-c2ccc(S(N)(=O)=O)cc2)cc1 [Compound 6a2]
Form recovered in medium at the end of incubation (Raw264.7 cells): recovered exclusively as their glucuronides | Glucuronidation by rat liver microsomes (FIG. 5A) (rat liver microsomes): rapidly glucuronidated | Glucuronidation rates by liver microsomes (Mean) (rat liver microsomes): 3570 pmol/mg/min | IC50 (human COX-2): 0.134 ± 0.018 µM

Cc1ccc(-c2cc(COc3ccc(O)cc3)nn2-c2ccc(S(N)(=O)=O)cc2)cc1 [Compound 6a3]
Form recovered in medium at the end of incubation (Raw264.7 cells): stayed as aglycone | Peak blood concentration [3]: 1.69 µM | Glucuronidation rates by liver microsomes (Mean) (rat liver microsomes): 590 pmol/mg/min | IC50 (human COX-2): 0.064 ± 0.005 µM
